Data from patent US20110044938A1 (NYCOMED GMBH, priority 2006, published 2011).

Legend:
[1] = system: RKO (RKOp27) human colon adenocarcinoma cells; test: Alamar Blue cell viability assay, anti-proliferative/cytotoxic activity on proliferating RKO subclones; format: cell-based; conditions: RKOp27, 72 h, RKO p27 uninduced (proliferating) cells, value = class bound given in Table A, read-out: −logIC50 RKO p27 uninduced (proliferating) (converted)
In short: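 RKOp27 subclones (5000 cells/well) were exposed 24 h after seeding to semi-log compound dilutions in DMEM with 10% FCS, in quadruplicate, for 72 h at 37 °C. Viability was read by Alamar Blue fluorescence (544/590 nm) relative to untreated cells (1% DMSO medium). IC50 came from concentration-effect curves and is reported as −log IC50 [mol/l].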

[2] = system: subclones of RKO colon adenocarcinoma cells (RKOp27 or RKOp21) arrested by Ponasterone A; test: Alamar Blue cell viability assay, cell cycle specific mode of action: cells arrested by ectopic p27Kip1 induced by Ponasterone A versus proliferating cells; format: cell-based; conditions: Homo sapiens, RKO p27 induced (arrested) cells, 10 μM Ponasterone A, 72 hours, value = class bound given in Table A, read-out: −logIC50 RKO p27 induced (arrested) (converted)
In short: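 RKOp27 or RKOp21 cells, 15000/well in DMEM/10% FCS, either arrested by p27Kip1 induced with 10 μM Ponasterone A or proliferating without inducer; compound added after 24 h, 72 h at 37° C. Alamar Blue fluorescence (544/590 nm), viability as % of untreated cells; −log IC50 reported.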

Structure (SMILES)	IC50 [2] [nM]	IC50 [1] [nM]
CCNC(=O)OCC1CCc2c(sc(NC(=O)CCc3cccc(OC)c3)c2C#N)C1 (stereo not shown) [Example 252, Ethyl-carbamic acid 3-cyano-2-[3-(3-methoxy-phenyl)-propanoylamino]-4,5,6,7-tetrahydro-benzo[b]thiophen-6-ylmethyl ester]	≥ 100000	≤ 501
N#Cc1c(NC(=O)/C=C/c2cccnc2)sc2c1CCC(COC(=O)NC1COC1)C2 (stereo not shown) [Example 149, Oxetan-3-yl-carbamic acid 3-cyano-2-((E)-3-pyridin-3-yl-allanoylamino)-4,5,6,7-tetrahydro-benzo[b]thiophen-6-ylmethyl ester]	≥ 100000	501 to 2000
N#Cc1c(NC(=O)/C=C/c2cccnc2)sc2c1CCC(OC(=O)N1CCOCC1)C2 (stereo not shown) [Example 61, Morpholine-4-carboxylic acid 3-cyano-2-((E)-3-pyridin-3-yl-allanoylamino)-4,5,6,7-tetrahydro-benzo[b]thiophen-6-yl ester]	≥ 100000	≤ 501
CC(CC(=O)Nc1sc2c(c1C#N)CCC(OC(=O)NCC1CCCO1)C2)c1ccccc1 (stereo not shown) [Example 297, (Tetrahydro-furan-2-ylmethyl)-carbamic acid 3-cyano-2-(3-phenyl-butanoyl-amino)-4,5,6,7-tetrahydro-benzo[b]thiophen-6-yl ester]	≥ 10000	501 to 2000
COc1cccc(CCC(=O)Nc2sc3c(c2C#N)CCC(OC(=O)NCc2cc(C)no2)C3)c1 (stereo not shown) [Example 230, (3-Methyl-isoxazol-5-ylmethyl)-carbamic acid 3-cyano-2-[3-(3-methoxy-phenyl)-propanoylamino]-4,5,6,7-tetrahydro-benzo[b]thiophen-6-yl ester]	≥ 100000	501 to 2000
CC(CC(=O)Nc1sc2c(c1C#N)CCC(OC(=O)N1CCCC1)C2)c1cccnc1 (stereo not shown) [Example 369, Pyrrolidine-1-carboxylic acid 3-cyano-2-(3-pyridin-3-yl-butanoylamino)-4,5,6,7-tetrahydro-benzo[b]thiophen-6-yl ester]	≥ 50100	501 to 2000
Cc1cc(CNC(=O)OC2CCc3c(sc(NC(=O)CC(C)c4ccccc4)c3C#N)C2)on1 (stereo not shown) [Example 373, (3-Methyl-isoxazol-5-ylmethyl)-carbamic acid 3-cyano-2-(3-phenyl-butanoylamino)-4,5,6,7-tetrahydro-benzo[b]thiophen-6-yl ester]	≥ 50100	≤ 501
CCOC(=O)OC1CCc2c(sc(NC(=O)/C=C/c3cccnc3)c2C#N)C1 (stereo not shown) [Example 4, Carbonic acid 3-cyano-2-((E)-3-pyridin-3-yl-allanoylamino)-4,5,6,7-tetrahydro-benzo[b]thiophen-6-yl ester ethyl ester]	≥ 100000	≤ 501
N#Cc1c(NC(=O)/C=C/c2cccnc2)sc2c1CC[C@H](COC(=O)N1CCC[C@H](O)C1)C2 [Example 87c, (S)-3-Hydroxy-piperidine-1-carboxylic acid (S)-3-cyano-2-((E)-3-pyridin-3-yl-allanoylamino)-4,5,6,7-tetrahydro-benzo[b]thiophen-6-ylmethyl ester]	≥ 100000	≤ 501
COCCOC(=O)OC1CCc2c(sc(NC(=O)CCc3cccc(OC)c3)c2C#N)C1 (stereo not shown) [Example 217, Carbonic acid 3-cyano-2-[3-(3-methoxy-phenyl)-propanoylamino]-4,5,6,7-tetrahydro-benzo[b]thiophen-6-yl ester 2-methoxy-ethyl ester]	≥ 100000	501 to 2000
COc1cccc(C(C)CC(=O)Nc2sc3c(c2C#N)CCC(COC(=O)NCc2cc(C)on2)C3)c1 (stereo not shown) [Example 334, (5-Methyl-isoxazol-3-ylmethyl)-carbamic acid 3-cyano-2-[3-(3-methoxy-phenyl)-butanoylamino]-4,5,6,7-tetrahydro-benzo[b]thiophen-6-ylmethyl ester]	≥ 50100	≤ 501
CCOc1ccccc1CCC(=O)Nc1sc2c(c1C#N)CCC(OC(=O)NCc1nc(C)cs1)C2 (stereo not shown) [Example 210, (4-Methyl-thiazol-2-ylmethyl)-carbamic acid 3-cyano-2-[3-(2-ethoxy-phenyl)-propanoylamino]-4,5,6,7-tetrahydro-benzo[b]thiophen-6-yl ester]	≥ 100000	501 to 2000
COc1cccc(CCC(=O)Nc2sc3c(c2C#N)CCC(OC(=O)NCc2cc(C)on2)C3)c1 (stereo not shown) [Example 224, (5-Methyl-isoxazol-3-ylmethyl)-carbamic acid 3-cyano-2-[3-(3-methoxy-phenyl)-propanoylamino]-4,5,6,7-tetrahydro-benzo[b]thiophen-6-yl ester]	≥ 100000	501 to 2000
COc1cccc(C(C)CC(=O)Nc2sc3c(c2C#N)CCC(COC(=O)NC(C)c2cccnc2)C3)c1 (stereo not shown) [Example 335, (1-Pyridin-3-yl-ethyl)-carbamic acid 3-cyano-2-[3-(3-methoxy-phenyl)-butanoylamino]-4,5,6,7-tetrahydro-benzo[b] thiophen-6-ylmethyl ester]	≥ 50100	501 to 2000
COc1cccc(CCC(=O)Nc2sc3c(c2C#N)CCC(OC(=O)NCc2cncn2C)C3)c1 (stereo not shown) [Example 265, (3-Methyl-3H-imidazol-4-ylmethyl)-carbamic acid 3-cyano-2-[3-(3-methoxy-phenyl)-propanoylamino]-4,5,6,7-tetrahydro-benzo[b]thiophen-6-yl ester]	≥ 50100	≤ 501
COc1cccc(C(C)CC(=O)Nc2sc3c(c2C#N)CCC(OC(=O)NCc2cccnc2)C3)c1 (stereo not shown) [Example 268, Pyridin-3-ylmethyl-carbamic acid 3-cyano-2-[3-(3-methoxy-phenyl)-butanoylamino]-4,5,6,7-tetrahydro-benzo[b]thiophen-6-yl ester]	≥ 100000	501 to 2000
Cn1cc(CNC(=O)OCC2CCc3c(sc(NC(=O)/C=C/c4cccnc4)c3C#N)C2)cn1 (stereo not shown) [Example 50, (1-Methyl-1H-pyrazol-4-ylmethyl)-carbamic acid 3-cyano-2-((E)-3-pyridin-3-yl-allanoylamino)-4,5,6,7-tetrahydro-benzo[b]thiophen-6-ylmethyl ester]	≥ 100000	≤ 501

The next lines start with results.

IC50 [2] [nM]	Structure (SMILES)	IC50 [1] [nM]
≥ 100000	N#Cc1c(NC(=O)/C=C/c2cccnc2)sc2c1CCC(COC(=O)N1CCC(O)CC1)C2 (stereo not shown) [Example 114, 4-Hydroxy-piperidine-1-carboxylic acid 3-cyano-2-((E)-3-pyridin-3-yl-allanoylamino)-4,5,6,7-tetrahydro-benzo[b]thiophen-6-ylmethyl ester]	≤ 501
≥ 100000	Cc1ccncc1/C=C/C(=O)Nc1sc2c(c1C#N)CCC(COC(=O)N1CCC(O)CC1)C2 (stereo not shown) [Example 133, 4-Hydroxy-piperidine-1-carboxylic acid 3-cyano-2-[(E)-3-(4-methyl-pyridin-3-yl)-allanoylamino]-4,5,6,7-tetrahydro-benzo[b]thiophen-6-ylmethyl ester]	≤ 501
≥ 50100	COc1cccc(C(C)CC(=O)Nc2sc3c(c2C#N)CCC(OC(=O)N2CCOCC2)C3)c1 (stereo not shown) [Example 374, Morpholine-4-carboxylic acid 3-cyano-2-(3-(3-methoxy-phenyl)-butanoylamino)-4,5,6,7-tetrahydro-benzo[b] thiophen-6-yl ester]	≤ 501
≥ 100000	COc1cccc(CCC(=O)Nc2sc3c(c2C#N)CCC(OC(=O)NCc2cc(C)nn2C)C3)c1 (stereo not shown) [Example 226, (2,5-Dimethyl-2H-pyrazol-3-ylmethyl)-carbamic acid 3-cyano-2-[3-(3-methoxy-phenyl)-propanoylamino]-4,5,6,7-tetrahydro-benzo[b]thiophen-6-yl ester]	≤ 501
≥ 100000	COC(=O)OC1CCc2c(sc(NC(=O)CCc3cccnc3)c2C#N)C1 (stereo not shown) [Example 186, Carbonic acid 3-cyano-2-(3-pyridin-3-yl-propanoylamino)-4,5,6,7-tetrahydro-benzo[b]thiophen-6-yl ester methyl ester]	501 to 2000
≥ 100000	N#Cc1c(NC(=O)/C=C/c2cccnc2)sc2c1CCC(COC(=O)NCCc1cccnc1)C2 (stereo not shown) [Example 19, (2-Pyridin-3-yl-ethyl)-carbamic acid 3-cyano-2-((E)-3-pyridin-3-yl-allanoylamino)-4,5,6,7-tetrahydro-benzo[b]thiophen-6-ylmethyl ester]	501 to 2000
≥ 100000	N#Cc1c(NC(=O)/C=C/c2cccnc2)sc2c1CCC(COC(=O)NC1CCC1)C2 (stereo not shown) [Example 98, Cyclobutyl-carbamic acid 3-cyano-2-((E)-3-pyridin-3-yl-allanoylamino)-4,5,6,7-tetrahydro-benzo[b]thiophen-6-ylmethyl ester]	≤ 501
≥ 50100	COc1cccc(C(C)CC(=O)Nc2sc3c(c2C#N)CCC(COC(=O)NCC2CCOCC2)C3)c1 (stereo not shown) [Example 328, (Tetrahydro-pyran-4-ylmethyl)-carbamic acid 3-cyano-2-[3-(3-methoxy-phenyl)-butanoyl-amino]-4,5,6,7-tetrahydro-benzo[b]thiophen-6-ylmethyl ester]	501 to 2000
≥ 100000	N#Cc1c(NC(=O)/C=C/c2cccnc2)sc2c1CCC(OC(=O)N1CC[C@H](O)C1)C2 (stereo partly drawn) [Example 146, (S)-3-Hydroxy-pyrrolidine-1-carboxylic acid 3-cyano-2-((E)-3-pyridin-3-yl-allanoylamino)-4,5,6,7-tetrahydro-benzo[b]thiophen-6-yl ester]	≤ 501
